This is an account of results in PubChem BioAssay AID1259427 (Fisher Drug Discovery Resource Center, 2018).

Usually EC50 stands for the concentration that produces a half-maximal response.

This test has as its target Aedes aegypti neuropeptide Y-like receptor 7 (NPYLR7). The experiment in a line: NPYLR7 activation potency in cells – cell-based, Aedes aegypti, hit validation, mosquito biting behavior, confirmation (AID 1259427).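 Note: potency of agonists that activate the receptor and raise the calcium signal.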 The settings on record: HEK293T NPYLR7/Galpha15/GCaMP6s, calcium fluorescence.

Molecules are shown by their SMILES. The source made the active and inactive calls.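 Rule for the calls: active = EC50 at or below a set limit, with no effect in the paired counter-screen assay; inactive = the rest.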 Bounds are passed on as bounds.

On to `CCOc1cc(/C=C2\SC(=S)N(NC(=O)c3ccccc3O)C2=O)ccc1O`, for which the EC50 was > 20 µM (inactive). Consider `Cc1cccc(C2=N/C(=C\c3cc4cc5c6c(c4oc3=O)CCCN6CCC5)C(=O)O2)c1`, for which the EC50 result is “inactive”. The value for `N#Cc1cc(C(=O)c2cc(Cl)cc(Cl)c2O)cn(-c2nccs2)c1=O` was 14.4 µM; that for `CCc1nc(N=C(N)N)nc2cc(C)ccc12` was 7.66 µM; that for `CCCCC(CC)CN=C(N)NC(N)=NCCCCCCN=C(N)NC(N)=NCC(CC)CCCC` (stereo not drawn) was 17.3 µM. In the case of `Cc1cccc(Oc2nc3ccccn3c(=O)c2/C=C(\C#N)c2nc3ccccc3s2)c1`, the EC50 is > 20 µM (inactive). For `Cc1ccc(N2C(=O)NC(=O)/C(=C\c3cccs3)C2=O)cc1`, the EC50 was > 20 µM (inactive). On to `CN1C(=CC=C2C(=O)Oc3ccccc3C2=O)C(C)(C)c2ccccc21`, for which the EC50 result is “inactive”. For `CCOC(=O)N1CCN(c2ccc(/C=C(\C#N)c3nc4ccccc4n3C)o2)CC1`, the EC50 entry was “inactive”. For `C=C(C)Cn1c(C(=O)N2CCN(C(=O)CCC(=O)OCC)C(C)C2)cc2ccoc21` (stereo not drawn), the EC50 was 6.05 µM.

As to `CCOC(=O)N1CCC(NC(=O)c2sc3nc4c(c(C(F)(F)F)c3c2N)CC(C)CC4)CC1` (stereo not drawn), the EC50 was > 20 µM (inactive). As to `COc1cc(OC)c(C2=NOC3(CC(=O)N(c4cccc(Cl)c4)C3=O)C2)cc1OC` (stereo not drawn), the EC50 was > 20 µM (inactive).

Turning to `CCN(CC)C1=CC2=CC(=C(C#N)C#N)CCC2CC1` (stereo not drawn), the EC50 was < 0.039 µM (inactive).

For `CCOC(=O)c1nc2ccccc2nc1N1CCN(C(=O)N2CCOCC2)CC1`, the EC50 is > 20 µM (inactive). The result for `COc1ccc(CC2c3cc(OC)c(OC)cc3CC[N+]2(C)CCC(=O)OCCCCCOC(=O)CC[N+]2(C)CCc3cc(OC)c(OC)cc3C2Cc2ccc(OC)c(OC)c2)cc1OC` (stereo not drawn) reads 3.55 µM. For the compound `Clc1ccc(-c2noc3c2CN(CCn2cc(Cl)cn2)CC3)cc1`, the EC50 is > 20 µM (inactive).

As to `Cc1ccc(CN(Cc2ccc(F)cc2)C(=O)CNCCN2CCOCC2)s1`, the EC50 was > 20 µM (inactive). For the compound `COc1ccc(OC)c(CCNc2nc3cnc(-c4cccc5ccccc45)cc3n2C)c1`, the EC50 is 12.4 µM.

`COc1cc(C=C(C#N)C(=O)OC(C)C)cc(Cl)c1O`: the EC50 was > 20 µM (inactive). Take `CN1CCc2c(sc(NC(=O)Cc3ccccc3)c2-c2nc3ccccc3s2)C1`: the EC50 was > 20 µM (inactive). In the case of `CCN1/C(=C/C2=CC(=O)CC(C)(C)C2)Sc2ccccc21`, the EC50 result is “inactive”. As to `COc1ccc2c(c1)OCC(C=C(C#N)S(=O)(=O)c1ccc(Br)cc1)=C2`, the EC50 was > 20 µM (inactive).

As to `N#Cc1c(N)nc2c(c1N)C(Sc1ccccc1)c1ccc(O)cc1O2` (stereo not drawn), the EC50 was < 0.039 µM (inactive). Turning to `Nc1c(S(=O)(=O)O)cc2c3c(cccc13)C(=O)N(CCO)C2=O`, the EC50 entry was “inactive”. The value for `COc1ccc(/C=C2\Oc3c(ccc4c3CN(Cc3ccncc3)CO4)C2=O)cc1` was “inactive”. The result for `CCN1C(=Cc2cc(C)[n+](C3CCCCC3)c(C)c2)Sc2ccccc21` reads > 20 µM (inactive).

For the compound `COc1cc(/C=C2\SC(=S)N(C(C)C(=O)O)C2=O)ccc1O` (stereo not drawn), the EC50 result is “inactive”. Consider `CC(C)COCC(O)CN(Cc1cccn1C)CC1CCCO1` (stereo not drawn), for which the EC50 is > 20 µM (inactive). As to `COC(=O)c1cnc(/C=C/c2cc(C)c(O)c(C)c2)s1`, the EC50 is > 20 µM (inactive). The result for `COc1cc(OC)cc(C(=O)N2CCN(C(C(=O)Nc3ccc(NC(C)=O)cc3)C3CCCC3)CC2)c1` (stereo not drawn) reads > 20 µM (inactive); that for `CCN1CCN(Cc2c(O)cc(C)c3c2O/C(=C\c2ccco2)C3=O)CC1`, > 20 µM (inactive).

As for `CCN=c1cc2oc3cc(NCC)c(C)cc3c(-c3ccccc3C(=O)OCC)c-2cc1C`, the EC50 entry was “inactive”. As for `CC(C)(C)c1cnc(CSc2cnc(NC(=O)C3CCNCC3)s2)o1`, the concentration giving a half-maximal response (EC50) was 14.9 µM. The value for `O=[N+]([O-])c1ccc(-n2nc3ccc4nonc4c3n2)cc1` was > 20 µM (inactive); that for `CNC(=O)NC(=O)CCN1CC(c2ccccc2Cl)c2c([nH]c3ccccc23)C1C` (stereo not drawn) was > 20 µM (inactive). For `O=C1OC(c2ccc(Cl)c([N+](=O)[O-])c2)=N/C1=C\c1cc2cc3c4c(c2oc1=O)CCCN4CCC3`, the EC50 was < 0.039 µM (inactive).

Consider `COc1ccc(CCN2COc3ccc4c(c3C2)O/C(=C\c2cccnc2)C4=O)cc1`, for which the EC50 is > 20 µM (inactive). For `C=CCN1C=CC(=CC=C(C#N)C#N)C=C1`, the EC50 result is “inactive”. Consider `COc1cc(C(=O)N2CCOC(c3ccccc3)C2)cc(OC)c1C` (stereo not drawn), for which the EC50 was > 20 µM (inactive). `CS(=O)(=O)c1ccc(-c2cccc3c2OC(CNC(=O)c2cc[n+]([O-])cc2)C3)cc1` (stereo not drawn): the EC50 is 17.1 µM. As to `Nc1ccc2c3c(cccc13)C(=O)N(c1ccccc1)C2=O`, the EC50 result is “inactive”. As to `CCC(C)n1cc(/C=C2/C(=O)NC(=O)N(c3ccc4c(c3)OCO4)C2=O)c2ccccc21` (stereo not drawn), the EC50 was > 20 µM (inactive). The result for `CCOc1cccc(C=C2Oc3cc(O)ccc3C2=O)c1OC` reads > 20 µM (inactive); that for `COCCN=Cc1cc(I)cc(I)c1O`, > 20 µM (inactive). As for `CCOC(=O)C1CCCN(CC(=O)N2N=C(c3ccccc3Cl)CC2c2ccc(Cl)cc2)C1` (stereo not drawn), the EC50 is > 20 µM (inactive). The result for `Clc1cccc2ccc(CN3CCn4cncc4C3)nc12` reads > 20 µM (inactive); that for `COc1ccccc1OCCCOc1ccc(Br)cc1Cl`, > 20 µM (inactive). `COc1cc(C=C2N=C(c3ccc4c(c3)OCO4)OC2=O)cc2c1OCCO2`: the EC50 is > 20 µM (inactive). The value for `CCNC(=O)[C@H]1O[C@@H](n2cnc3c(N)ncnc32)C(O)[C@H]1O` (stereo partly drawn) was “inactive”. Regarding `O=C1C(=Cc2ccccc2O)NC(=S)N1Cc1ccco1`, the EC50 result was “inactive”.

`CCOC(=O)C1CCN(C(=O)CC(c2cccc(C(F)(F)F)c2)c2c[nH]c3c(CC)cccc23)CC1` (stereo not drawn): the EC50 was > 20 µM (inactive).

On to `CN=c1nc(-c2ccccc2)n(-c2ccccc2)s1`, for which the concentration for a half-maximal effect (EC50) is 19.9 µM. On to `CCN1CC=C2C(C#N)C(=N)C(C#N)(C#N)C(c3cccs3)C2C1` (stereo not drawn), for which the EC50 was > 20 µM (inactive).

Regarding `COc1ccc(N2CCN(c3cc(C(F)(F)F)nc(SCc4cccc(C(=O)NCc5ccccn5)c4)n3)CC2)cc1`, the EC50 is > 20 µM (inactive).

On to `COc1ccc(-n2ccnc2-c2nc(-c3cccs3)oc2C)cn1`, for which the EC50 was > 20 µM (inactive). On to `COc1cc(C=C2C=c3c(O)cccc3=C2O)cc(Cl)c1O`, for which the EC50 entry is “inactive”. Regarding `CCCc1ccccc1N1C(=O)CSC1c1ccc(NC(=O)CCl)cc1` (stereo not drawn), the EC50 was > 20 µM (inactive). Turning to `CCCn1c2c(c(=O)n(C)c1=O)C(=O)C(=Cc1ccc(N(C)C)cc1)N2`, the EC50 entry was “inactive”. For `COCCn1c(C)cn2c3c(=O)n(Cc4ccc(Cl)cc4)c(=O)n(C)c3nc12`, the EC50 was > 20 µM (inactive).

With `COc1cc(-c2nc3n(n2)C(c2ccc(O)cc2)C(C(N)=O)=C(C)N3)cc(OC)c1OC` (stereo not drawn), the EC50 is > 20 µM (inactive). As for `C=CCN1C(=O)C(Cc2ccc(OC)cc2)S/C1=N/N=C\c1cccs1` (stereo not drawn), the EC50 was > 20 µM (inactive).

Turning to `FC(F)(F)c1cc(-c2cccs2)nc2ncnn12`, the EC50 is > 20 µM (inactive).

Consider `CCOC=C(C#N)c1nc(C)cs1`, for which the EC50 result was “inactive”. Regarding `CCCc1[nH]n(-c2ccc(Cl)c(Cl)c2)c(=O)c1/C=C1\NC(=O)N(Cc2ccc(C)cc2)C1=O`, the EC50 was > 20 µM (inactive). The value for `COc1ccc(OC)c(CCNc2nc3cnc(-c4ccc(Cl)cc4)cc3n2C)c1` was 19.5 µM.

For the compound `O=C(CN1C(=O)SC(=Cc2ccc(N3CCCCCC3)o2)C1=O)N1CCCCCC1`, the EC50 is > 20 µM (inactive). With `COc1ccccc1CCNC(=O)c1ccc(Cn2c(C)nc3ccccc32)o1`, the EC50 was > 20 µM (inactive). The value for `CCN1CCN(C2=CC3=CC(=C(C#N)C#N)CCC3CC2)CC1` (stereo not drawn) was < 0.039 µM (inactive). As to `CCOc1ccc(C(=O)Nc2sc3c(c2-c2nc4ccccc4s2)CCN(C)C3)cc1`, the EC50 is > 20 µM (inactive). Take `O=c1[nH]c(SCCO)nc2sc3c(c12)CCCC3`: the EC50 is > 20 µM (inactive).

With `N#C/C(=C/c1ccc(N2CCCCC2)o1)c1cccc(F)c1`, the EC50 was > 20 µM (inactive).

Consider `CC(C)c1nc(NC(=O)c2[nH]ncc2Br)n(C)n1`, for which the EC50 entry was “inactive”.

`COc1ccc(NC(=O)C2C=CCN2)cc1NC(=O)c1ccco1` (stereo not drawn): the EC50 was > 20 µM (inactive).

For `N#C/C(=C/c1ccc(N2CCCCCC2)o1)c1ccc(F)cc1`, the EC50 was > 20 µM (inactive).

With `CNC[C@@H](O)c1ccc(O)c(O)c1`, the EC50 was > 20 µM (inactive). Consider `CCCC1CCC(C(=O)Nc2nnc(SCC)s2)CC1` (stereo not drawn), for which the EC50 is > 20 µM (inactive). For the compound `O=C1NC(=O)C2=Cc3ccc(O)cc3OC2(O)N1` (stereo not drawn), the EC50 entry was “inactive”. On to `CN1C(=S)N(C2CCCCC2)C(=O)/C1=C\c1ccc2c(c1)OCO2`, for which the EC50 was > 20 µM (inactive). Turning to `O=c1[nH]c(CCl)nc2sc3c(c12)CCN(Cc1ccccc1)C3`, the EC50 was > 20 µM (inactive). The result for `CN(Cc1ccccc1)C1=CC2=CC(=C(C#N)C#N)CCC2CC1` (stereo not drawn) reads 5.13 µM.

For the compound `O=C(Nc1cccc(-c2nnco2)c1)C1CCCCC1`, the EC50 is > 20 µM (inactive). As for `CCN(CC)c1ccc(/C=C2\SC(=S)N(CC(=O)O)C2=O)c(O)c1`, the EC50 result is “inactive”. The value for `FC(F)(F)c1ccc(-c2nc3ccc(Cl)cn3c2NCc2ccccc2)cc1` was > 20 µM (inactive).

Regarding `Cc1nc2ncccc2cc1C(=O)N1CCC2(CCNC(=O)CC2)CC1`, the EC50 is > 20 µM (inactive).

On to `CCCC[n+]1c(C)cc(C=C2Sc3ccccc3N2C)cc1C`, for which the EC50 was > 20 µM (inactive). The value for `O=c1oc2c(CN3CCN(CCO)CC3)c(O)ccc2cc1-c1nc2ccccc2s1` was < 0.039 µM (inactive); that for `CCOC(=O)c1cc(O)c(C(=O)OCC)s1` was > 20 µM (inactive); that for `O=C1c2cccc3c(NCC(O)CCl)ccc(c23)C(=O)N1c1ccccc1` (stereo not drawn) was < 0.039 µM (inactive).
